Assay results as given in patent US20250144067A1, “PERSONALIZED STARVATION THERAPY FOR CANCER” (Faeth Therapeutics, Inc., priority 2021, published 2025).
Counter-ions that a name gives are not always drawn. Like-named read-outs stand apart in the source and are kept apart here.

Legend:
[1] = system: NCI-H292 lung cancer cells; assay: FDA drug screening, complete media vs cholesterol-free media without statin (TABLE 1); assay type: cell-based, human
[2] = system: NCI-H292 lung cancer cells; assay: FDA drug screening, complete media vs cholesterol-free media with simvastatin (TABLE 2); assay type: cell-based, human
[3] = Complete minus Cholesterol-free, >0 enhanced anti-cancer activity, about 0 neutral, <0 antagonist
[4] = NCI-H292 cells, cholesterol-free media without statin
[5] = NCI-H292 cells, cholesterol-free media with simvastatin 0.04 μM, cell growth value in FDA drug screen
[6] = NCI-H292 cells, complete media, cell growth value in FDA drug screen
[7] = complete media minus cholesterol-free media + simvastatin, >0 enhanced anti-cancer activity, about 0 neutral, <0 antagonist
[8] = NCI-H292 cells, FDA library drug in cholesterol-free media with simvastatin 0.04 μM
[9] = NCI-H292 cells, FDA library drug in complete media
[10] = complete media vs cholesterol-free media + simvastatin (0.04 μM), […]
[11] = Complete minus Cholesterol-free, greater than 0 enhanced anti-cancer activity, about 0 neutral, below 0 antagonists
[12] = NCI-H292 cells in cholesterol-free media without statin
[13] = NCI-H292 cells in complete media
[14] = NCI-H292 cells, cholesterol-free media with simvastatin 0.04 μM, FDA drug library screen (TABLE 2)
[15] = NCI-H292 cells, complete media, FDA drug library screen (TABLE 2)
[16] = complete media minus cholesterol-free media + simvastatin (0.04 μM), >0 enhanced anti-cancer activity, about 0 neutral, <0 antagonist
[17] = NCI-H292 cells, cholesterol-free media without statin, FDA drug library screen
[18] = NCI-H292 cells, complete media, FDA drug library screen
[19] = complete vs cholesterol-free media, >0 enhanced anti-cancer activity, about 0 neutral, <0 antagonist
[20] = NCI-H292 cells, drug in cholesterol-free media with simvastatin 0.04 μM
[21] = NCI-H292 cells, drug in complete media
[22] = complete media vs cholesterol-free media + simvastatin (0.04 μM), >0 enhanced anti-cancer activity, about 0 neutral, <0 antagonist
[23] = NCI-H292 cells, FDA drug library screen, cholesterol-free media with simvastatin 0.04 μM
[24] = NCI-H292 cells, FDA drug library screen, complete media

## CCOC(=O)[C@H](CCc1ccccc1)N[C@@H](C)C(=O)N(CC(=O)O)C1Cc2ccccc2C1 [Delapril (hydrochloride)]
[1]; [3]
  Difference: −0.30
[1]; [4]
  Cholesterol-free: 1.222
[1]; NCI-H292 cells, complete media
  Complete: 0.9182
[2]; [5]
  Cholesterol-free media + simvastatin (0.04 μM): 0.7815
[2]; [6]
  Complete Media: 0.8772
[2]; [7]
  Difference: 0.10

## CN(CCCCCCCCCCN(C)C(=O)Oc1cccc([N+](C)(C)C)c1)C(=O)Oc1cccc([N+](C)(C)C)c1 [Demecarium Bromide]
[1]; Complete minus Cholesterol-free, […]
  Difference: −0.29
[1]; [4]
  Cholesterol-free: 1.112
[1]; NCI-H292 cells, complete media
  Complete: 0.8186
[2]; [8]
  Cholesterol-free media + simvastatin (0.04 μM): 1.197
[2]; [9]
  Complete Media: 0.9059
[2]; [10]
  Difference: −0.29

## CN(C)[C@@H]1C(O)=C(C(N)=O)C(=O)[C@@]2(O)C(O)=C3C(=O)c4c(O)ccc(Cl)c4[C@@H](O)[C@H]3C[C@@H]12 [Demeclocycline (hydrochloride)]
[1]; [11]
  Difference: −0.59
[1]; [12]
  Cholesterol-free: 1.527
[1]; [13]
  Complete: 0.9395
[2]; [14]
  Cholesterol-free media + simvastatin (0.04 μM): 1.054
[2]; [15]
  Complete Media: 1.04
[2]; [16]
  Difference: −0.01

## C[C@H](CCC(=O)O)[C@H]1CC[C@H]2[C@@H]3CC[C@@H]4C[C@H](O)CC[C@]4(C)[C@H]3C[C@H](O)[C@]12C [Deoxycholic acid sodium salt]
[1]; [17]
  Cholesterol-free: 0.8045
[1]; [18]
  Complete: 0.9543
[1]; [19]
  Difference: 0.15
[2]; [20]
  Cholesterol-free media + simvastatin (0.04 μM): 0.8739
[2]; [21]
  Complete Media: 0.7063
[2]; [22]
  Difference: −0.17

## C[C@H](CCC(=O)O)[C@H]1CC[C@H]2[C@@H]3CC[C@@H]4C[C@H](O)CC[C@]4(C)[C@H]3C[C@H](O)[C@]12C [Deoxycholic acid]
[1]; [11]
  Difference: −0.65
[1]; [12]
  Cholesterol-free: 1.683
[1]; [13]
  Complete: 1.028
[2]; [8]
  Cholesterol-free media + simvastatin (0.04 μM): 1.379
[2]; [9]
  Complete Media: 0.931
[2]; [22]
  Difference: −0.45

## CC(=O)OCC(=O)[C@H]1CC[C@H]2[C@@H]3CCC4=CC(=O)CC[C@]4(C)[C@H]3CC[C@]12C [Deoxycorticosterone acetate]
[1]; [17]
  Cholesterol-free: 0.7412
[1]; [18]
  Complete: 1.214
[1]; [19]
  Difference: 0.47
[2]; [23]
  Cholesterol-free media + simvastatin (0.04 μM): 0.9825
[2]; [24]
  Complete Media: 0.8887
[2]; [22]
  Difference: −0.09

## CCC(=O)O[C@]1(C(C)=O)CC[C@H]2[C@@H]3CCC4=CC(=O)C=C[C@]4(C)[C@H]3[C@@H](O)C[C@@]21C [Deprodone propionate]
[1]; [17]
  Cholesterol-free: 0.6965
[1]; [18]
  Complete: 0.786
[1]; [19]
  Difference: 0.09
[2]; [5]
  Cholesterol-free media + simvastatin (0.04 μM): 0.6417
[2]; [6]
  Complete Media: 0.6907
[2]; [7]
  Difference: 0.05

## COc1ccc(-c2cc(C(F)F)nn2-c2ccc(S(N)(=O)=O)cc2)cc1F [Deracoxib]
[1]; [11]
  Difference: −0.50
[1]; [12]
  Cholesterol-free: 1.682
[1]; [13]
  Complete: 1.181
[2]; [23]
  Cholesterol-free media + simvastatin (0.04 μM): 1.651
[2]; [24]
  Complete Media: 1.821
[2]; [7]
  Difference: 0.17

## COC(=O)[C@H]1[C@H]2C[C@@H]3c4[nH]c5ccccc5c4CCN3C[C@H]2C[C@@H](OC(=O)c2cc(OC)c(OC)c(OC)c2)[C@@H]1OC [Deserpidine]
[1]; [3]
  Difference: −0.30
[1]; [4]
  Cholesterol-free: 0.9648
[1]; NCI-H292 cells, complete media
  Complete: 0.6619
[2]; [20]
  Cholesterol-free media + simvastatin (0.04 μM): 1.05
[2]; [21]
  Complete Media: 0.8141
[2]; [22]
  Difference: −0.24

## CC(C)N(CC[C@H](c1ccccc1)c1cc(CO)ccc1O)C(C)C [Desfesoterodine]
[1]; [17]
  Cholesterol-free: 0.7501
[1]; [18]
  Complete: 1.3
[1]; complete vs cholesterol-free media, […]
  Difference: 0.55
[2]; [20]
  Cholesterol-free media + simvastatin (0.04 μM): 1.01
[2]; [21]
  Complete Media: 0.8395
[2]; [10]
  Difference: −0.17

## CNCCCN1c2ccccc2CCc2ccccc21 [Desipramine hydrochloride]
[1]; [3]
  Difference: −0.04
[1]; [17]
  Cholesterol-free: 1.05
[1]; [18]
  Complete: 1.006
[2]; [8]
  Cholesterol-free media + simvastatin (0.04 μM): 2.126
[2]; [9]
  Complete Media: 1.494
[2]; [22]
  Difference: −0.63

## Clc1ccc2c(c1)CCc1cccnc1C2=C1CCNCC1 [Desloratadine]
[1]
  Cholesterol-free: 1.114
  Complete: 0.8419
  Difference: −0.27
[2]
  Cholesterol-free media + simvastatin (0.04 μM): 0.922
  Complete Media: 0.6254
  Difference: −0.30

## C#C[C@]1(O)CC[C@H]2[C@@H]3CCC4=CCCC[C@@H]4[C@H]3C(=C)C[C@@]21CC [Desogestrel]
[1]; [3]
  Difference: 0.06
[1]; [17]
  Cholesterol-free: 0.9017
[1]; [18]
  Complete: 0.9645
[2]; [9]
  Complete Media: 1.022
[2]; [22]
  Difference: −0.60

## CC1(C)O[C@@H]2C[C@H]3[C@@H]4CCC5=CC(=O)C=C[C@]5(C)[C@H]4[C@@H](O)C[C@]3(C)[C@]2(C(=O)CO)O1 [Desonide]
[1]; [3]
  Difference: −0.07
[1]; [17]
  Cholesterol-free: 0.6524
[1]; [18]
  Complete: 0.5811
[2]; [5]
  Cholesterol-free media + simvastatin (0.04 μM): 0.6303
[2]; [6]
  Complete Media: 0.7658
[2]; [7]
  Difference: 0.14

## C[C@@H]1C[C@H]2[C@@H]3CCC4=CC(=O)C=C[C@]4(C)[C@@]3(F)[C@@H](O)C[C@]2(C)[C@H]1C(=O)CO [Desoximetasone]
[1]; [3]
  Difference: −0.06
[1]; [17]
  Cholesterol-free: 0.8359
[1]; [18]
  Complete: 0.7716
[2]; [14]
  Cholesterol-free media + simvastatin (0.04 μM): 0.8194
[2]; [15]
  Complete Media: 0.8184
[2]; [16]
  Difference: 0.00

## CC(C)(C)C(=O)OCC(=O)[C@H]1CC[C@H]2[C@@H]3CCC4=CC(=O)CC[C@]4(C)[C@H]3CC[C@]12C [Desoxycorticosterone pivalate]
[1]
  Cholesterol-free: 1.574
  Complete: 1.04
  Difference: −0.53
[2]
  Cholesterol-free media + simvastatin (0.04 μM): 1.728
  Complete Media: 1.762
  Difference: 0.03

## CN(C)CC(c1ccc(O)cc1)C1(O)CCCCC1 (centres unmarked) [Desvenlafaxine]
[1]; [4]
  Cholesterol-free: 1.158
[1]; NCI-H292 cells, complete media
  Complete: 0.8309
[1]; complete vs cholesterol-free media, greater than 0 enhanced anti-cancer activity, about 0 neutral, below 0 antagonists
  Difference: −0.33
[2]; [5]
  Cholesterol-free media + simvastatin (0.04 μM): 1.047
[2]; [6]
  Complete Media: 1.102
[2]; [7]
  Difference: 0.05

## Cc1cccc(Cc2c[nH]cn2)c1C [Detomidine (hydrochloride)]
[1]; [11]
  Difference: −0.47
[1]; [12]
  Cholesterol-free: 1.106
[1]; [13]
  Complete: 0.6322
[2]; [23]
  Cholesterol-free media + simvastatin (0.04 μM): 1.019
[2]; [24]
  Complete Media: 0.9319
[2]; [22]
  Difference: −0.09

## CC(=O)OCC(=O)[C@@]1(O)[C@H](C)C[C@H]2[C@@H]3CCC4=CC(=O)C=C[C@]4(C)[C@@]3(F)[C@@H](O)C[C@@]21C [Dexamethasone acetate]
[1]; [3]
  Difference: −0.04
[1]; [17]
  Cholesterol-free: 0.6815
[1]; [18]
  Complete: 0.6403
[2]; [23]
  Cholesterol-free media + simvastatin (0.04 μM): 0.9553
[2]; [24]
  Complete Media: 0.8728
[2]; [22]
  Difference: −0.08

## C[C@@H]1C[C@H]2[C@@H]3CCC4=CC(=O)C=C[C@]4(C)[C@@]3(F)[C@@H](O)C[C@]2(C)[C@@]1(O)C(=O)COP(=O)([O-])[O-].[Na+].[Na+] [Dexamethasone phosphate disodium]
[1]; [3]
  Difference: −0.02
[1]; [17]
  Cholesterol-free: 0.7426
[1]; [18]
  Complete: 0.7227
[2]; [23]
  Cholesterol-free media + simvastatin (0.04 μM): 0.6625
[2]; [24]
  Complete Media: 1.229
[2]; [7]
  Difference: 0.57

## C[C@@H]1C[C@H]2[C@@H]3CCC4=CC(=O)C=C[C@]4(C)[C@@]3(F)[C@@H](O)C[C@]2(C)[C@@]1(O)C(=O)CO [Dexamethasone]
[1]; [3]
  Difference: 0.07
[1]; [17]
  Cholesterol-free: 0.7411
[1]; [18]
  Complete: 0.8107
[2]; [23]
  Cholesterol-free media + simvastatin (0.04 μM): 0.6107
[2]; [24]
  Complete Media: 0.7971
[2]; [7]
  Difference: 0.19
